The source of these data is patent US20040082550A1, “Tropolone derivative” (priority 2000, published 2004).

Structures are written as SMILES.

For data set [1], the system named is promyelocyte leukemia cell strain HL-60. Briefly: Test for induction of cell differentiation in HL-60 cells (NBT reduction ability). Format: cell-based. The settings on record: for Ratio of cells for which differentiation was induced by each compound alone (%): calculated from NBT reduction ability; for Ratio of cells for which differentiation was induced by each compound in combination with 1 × 10^−7 M of HX630 (%): in combination with 1×10^−7 M HX630 (retinoid synergist). As to the method: For each of the compounds of the examples, action for inducing cell differentiation was examined for each alone and in combination with 1×10^−7 M of HX630. According to the methods described in Japanese Patent Unexamined Publication (KOKAI) No. (Sho)61-76440/1986, differentiation of the cells of promyelocyte leukemia cell strain HL-60 into granulocytic series cells was determined based on morphological change and measurement of ability to reduce nitro blue tetrazolium (NBT). The ratios (%) of differentiated cells shown in the following table are those calculated from NBT reduction ability. HX630 is a retinoid synergist that enhances actions of retinoids, and the concentrations of −8, −7 and −6 mean that each compound was added at concentrations of 1×10^−8 M, 1×10^−7 M and 1×10^−6 M, respectively.

[2] abbreviates: compound concentration -6 (1×10^−6 M).
Where [3] appears, read: compound concentration -7 (1×10^−7 M).
[4] abbreviates: compound concentration -8 (1×10^−8 M).

Consider `CC1(C)CCC(C)(C)c2cc(-c3ccc(O)c(=O)cc3)ccc21` [Tp05], for which the melting point came out at 161 °C. Also, in data set [1] (concentration -6 (1×10^−6 M)), the “Ratio of cells for which differentiation was induced by each compound alone (%)” value is on record as 13%. In addition, the “Ratio of cells for which differentiation was induced by each compound alone (%)” value in data set [1] (concentration -7 (1×10^−7 M)) is given as 0.5%. For the same compound, in data set [1] (concentration -8 (1×10^−8 M)), the “Ratio of cells for which differentiation was induced by each compound alone (%)” value is given as 0.6%. Moreover, the “Ratio of cells for which differentiation was induced by each compound in combination with 1 × 10^−7 M of HX630 (%)” value in data set [1] (setting [2]) is listed as 35%. The “Ratio of cells for which differentiation was induced by each compound in combination with 1 × 10^−7 M of HX630 (%)” value in data set [1] (setting [3]) worked out at 1.2%. Besides, the “Ratio of cells for which differentiation was induced by each compound in combination with 1 × 10^−7 M of HX630 (%)” value in data set [1] (setting [4]) was 1.2%.

`COc1ccc(C(=O)Nc2ccc(O)c(=O)cc2)cc1C12CC3CC(CC(C3)C1)C2` [Tp88] displayed a melting point of 142 °C. The “Ratio of cells for which differentiation was induced by each compound alone (%)” value in data set [1] (concentration -6 (1×10^−6 M)) was 46%. In addition, the “Ratio of cells for which differentiation was induced by each compound alone (%)” value in data set [1] (concentration -7 (1×10^−7 M)) is recorded as 1.2%. Also, the “Ratio of cells for which differentiation was induced by each compound alone (%)” value in data set [1] (concentration -8 (1×10^−8 M)) is 0.9%. Moreover, the “Ratio of cells for which differentiation was induced by each compound in combination with 1 × 10^−7 M of HX630 (%)” value in data set [1] (setting [2]) turned out to be 62%. The “Ratio of cells for which differentiation was induced by each compound in combination with 1 × 10^−7 M of HX630 (%)” value in data set [1] (setting [3]) was found to be 14%. In data set [1] (setting [4]), the “Ratio of cells for which differentiation was induced by each compound in combination with 1 × 10^−7 M of HX630 (%)” value stood at 2.6%.
